Reference: patent US20250352535A1, “MDM2 DEGRADERS AND USES THEREOF” (Kymera Therapeutics, Inc., priority 2022, published 2025)

What was measured:
[1] = tested on: p53 pathway and cleaved caspase-3 (CC-3) in RS4;11 tumors; assay: IHC analysis of RS4;11 tumors; type: in vivo, NOD/SCID mice; details: n=3/group
Experimental: (§1) RS4;11 and MV4;11 tumors were established subcutaneously in the hind flank of NOD/SCID mice. Mice were randomized and treated with Compound A as either a single pulse dose or weekly for 3 weeks at doses matched for total AUC. MDM2 SMI DS-3032 (Milademetan) was dosed at its clinically equivalent dose and regimen of 3 days on/11 days off. Pharmacodynamic effects were assessed at mRNA level by RT-qPCR and protein level by quantitative targeted mass spectrometry and immunohistochemistry.

[2] = tested on: RS4;11 ALL model; assay: RS4;11 ALL xenograft efficacy; type: in vivo, NOD/SCID mice; details: for median survival: n=6 animals/group
Experimental: as §1

[3] = tested on: p53 pathway and cleaved caspase-3 (CC-3) in MV4;11 tumors; assay: IHC analysis of MV4;11 tumors; type: in vivo, NOD/SCID mice; details: n=3/group
Experimental: as §1

[4] = tested on: MV4;11 AML model; assay: MV4;11 AML xenograft efficacy; type: in vivo, NOD/SCID mice
Experimental: as §1

[5] = Solubility/stability screening in IV excipients; type: physicochemical
From the text: Initial solubility screening of Compound A focused on using different enabling excipients suitable for IV administration. The screening included surfactants, cosolvents, and pH modifiers (i.e., glacial acetic acid, and hydrochloric acid). […] As a result, the selected formulation to support the GLP toxicology study was comprised of 30% propylene glycol, 3% Solutol HS15, and 0.01 M in acetate buffer at pH 5±0.2.
The clinical formulation development was centered on using organic concentrates without water to avoid hydrolysis of Compound A. Additional solubility and stability evaluations of Compound A were conducted with different types of co-solvents and surfactants with and without butylated hydroxytoluene as antioxidant.

[6] = tested on: multiple heme indications (AML, T cell lymphomas, mantle cell lymphoma, DLBCL); assay: In vitro activity across heme indications; type: cell-based; details: mantle cell lymphoma and DLBCL most sensitive
Experimental: (§2) All cell lines were cultured according to recommended procedures unless otherwise noted. For growth inhibition assays, cells were treated with compounds for indicated time points. Viability was assessed using Promega® CellTiter-Glo® assay, and apoptosis was assessed using Promega® Caspase-Glo® 3/7 assay. Cell cycle arrest and/or apoptosis in response to single agent or combination treatment was assessed using flow cytometry analysis on cells treated for 24h.

[7] = tested on: CTG-2240 AML PDX model; assay: AML PDX model CTG-2240; type: in vivo, mice; details: 1 mg/kg, Q3W, IV
Experimental: (§3) AML patient cells from leukapheresis were intravenously (IV) injected and established in immunocompromised host strain mice. Surrogate animals were used to determine the level of engraftment targeting a threshold of ˜20% huCD45+ cells in BM. Mice were randomized on study and treatment was initiated. Vehicle and Compound A, 1 mg/kg were administered IV, every three weeks for six weeks (total of two doses of Compound A). At study end, whole blood, bone marrow and spleen were assessed by flow cytometry.

[8] = tested on: MOLM-13 xenograft model; assay: MOLM-13 xenograft combination study; type: in vivo
[9] = tested on: OCI-LY10 p53^WT ABC-subtype DLBCL xenograft model; assay: OCI-LY10 DLBCL xenograft; type: in vivo
[10] = molecular target: T1, MDM2 (Homo sapiens, UniProt Q00987); assay: Targeted proteomic analysis of RS4;11 tumors: MDM2; type: in vivo, NOD/SCID mice; details: one hour post dosing
T1 construct: RS4;11 and MV4;11 tumors were established subcutaneously in the hind flank of NOD/SCID mice; endogenous in cells; host or cells: RS4;11 xenograft tumors in NOD/SCID mice
T1 sequence (Q00987 whole entry): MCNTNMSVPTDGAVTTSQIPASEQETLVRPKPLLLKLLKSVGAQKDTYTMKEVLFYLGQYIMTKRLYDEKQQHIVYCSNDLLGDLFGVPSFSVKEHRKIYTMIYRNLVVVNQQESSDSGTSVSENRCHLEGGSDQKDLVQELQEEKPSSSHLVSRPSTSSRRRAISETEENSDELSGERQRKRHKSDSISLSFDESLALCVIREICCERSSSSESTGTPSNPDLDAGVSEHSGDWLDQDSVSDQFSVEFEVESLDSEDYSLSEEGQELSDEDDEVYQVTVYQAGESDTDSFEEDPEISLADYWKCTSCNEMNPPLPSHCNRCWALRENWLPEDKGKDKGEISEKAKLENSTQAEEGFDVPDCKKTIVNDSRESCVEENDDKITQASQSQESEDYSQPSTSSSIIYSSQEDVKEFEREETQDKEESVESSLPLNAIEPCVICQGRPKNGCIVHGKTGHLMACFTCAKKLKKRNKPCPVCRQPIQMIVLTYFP
Experimental: as §1

[11] = tested on: p53 pathway (p53, p21, PHLDA3); assay: Targeted proteomic analysis of RS4;11 tumors: p53 pathway biomarkers; type: in vivo, NOD/SCID mice
Experimental: as §1

[12] = Aqueous solubility of drug substance; type: physicochemical; details: aqueous media over pH 3 to 8, aqueous buffer, pH range between 3 to 8
Experimental: (§4) Compound A for injection was manufactured as a concentrated frozen solution containing 10 mg/mL of free base intended to be diluted with an intravenous (IV) infusion vehicle (normal saline, 0.9% sodium chloride, injection). […] To achieve drug concentration of 10 mg/mL, formulation development focused on identifying acceptable pharmaceutical solvents, surfactants, and pH modifiers to achieve the required solubility of Compound A.

[13] = tested on: hCD45+ cells in bone marrow and AML blasts; assay: Flow cytometry of AML PDX models; type: in vivo, mice; details: 1 mg/kg, Q3W
Experimental: as §3

[14] = tested on: CTG-2700 AML PDX model; assay: AML PDX model CTG-2700; type: in vivo, mice; details: 1 mg/kg, Q3W, IV
Experimental: as §3

[15] = tested on: MOLM-13 cell line; assay: Combination apoptosis and cell killing in MOLM-13; type: cell-based; details: combination with venetoclax and midostaurin
Experimental: as §2

[16] = Measured pKa; type: physicochemical; details: free base
Experimental: as §4

[17] = Measured Log D; type: physicochemical; details: free base
[18] = tested on: panel of solid and hematological tumor cell lines; assay: Cell growth inhibition across tumor cell line panel; type: cell-based; details: versus MDM2 small molecule inhibitors (SMIs)
Experimental: as §2

[19] = tested on: CTG-2227 AML patient-derived xenograft (PDX) model; assay: AML PDX model CTG-2227; type: in vivo, mice; details: 1 mg/kg, Q3W, IV
Experimental: as §3

[20] = tested on: apoptotic gene BBC3 in RS4;11 tumors; assay: qPCR analysis of RS4;11 tumors; type: in vivo, NOD/SCID mice
Experimental: as §1

[21] = tested on: acute lymphoblastic leukemia (ALL) cell line RS4;11; assay: MDM2/p53 pathway and apoptosis in RS4;11 cells; type: cell-based
[22] = tested on: TMD8 p53^MUT ABC-subtype DLBCL xenograft model; assay: TMD8 DLBCL xenograft; type: in vivo

CC1(C)CCC2(CC1)N[C@@H](C(=O)N[C@@H]1CC[C@@H](C(N)=O)OC1)[C@H](c1ccnc(Cl)c1F)[C@]21C(=O)Nc2cc(Cl)ccc21 [DS-3032, Milademetan, reference compound]
induction of CC-3 (IHC) ([1]; treatment with the SMI): not observed | median survival ([2]; clinically equivalent dosing regimen (3 days on/11 days off)): 12 days | induction of CC-3 (IHC) ([3]; similar to the lower weekly dosing regimen of Compound A): modest | complete responses ([4]; clinically equivalent dose and regimen, n=6 animals/group): No complete responses

Cn1c(=O)n(C2CCC(=O)NC2=O)c2ccc(C3CCN(C(=O)[C@H]4CC[C@H](NC(=O)[C@@H]5NC6(CCCCC6)[C@@]6(C(=O)Nc7cc(Cl)ccc76)[C@H]5c5cccc(Cl)c5F)CC4)CC3)cc21 (stereo partly drawn) [Compound A, (3′R,4′S,5′R)-6″-chloro-4′-(3-chloro-2-fluorophenyl)-N-((1R,4R)-4-(4-(1-(2,6-dioxopiperidin-3-yl)-3-methyl-2-oxo-2,3-dihydro-1H-benzo[d]imidazol-5-yl)piperidine-1-carbonyl)cyclohexyl)-2″-oxodispiro[cyclohexane-1,2′-pyrrolidine-3′,3″-indoline]-5′-carboxamide]
solubility and stability ([5]; combination of polyethylene glycol 400, ethanol, polysorbate 80 and butylated hydroxytoluene, 10 mg/mL): sufficient solubility and stability | solubility ([5]; formulations containing propylene glycol, polyethylene glycol 400, Solutol HS15 and polysorbate 80 at low pH): significantly enhanced | in vitro activity [6]: active across multiple heme indications | tumor response [7]: partial responses | activation of the p53 pathway and induction of CC-3 (IHC) ([1]; single dose versus exposure-matched weekly dosing): more robust activation of the p53 pathway and induction of cleaved caspase-3 (CC-3) | anti-tumor activity ([8]; single dose of Compound A in combination with daily dosing of venetoclax): sustained tumor regression | activity in xenograft model [9]: highly active | degradation of MDM2 in tumors [10]: robust degradation | proteomics biomarkers p53, p21 (cell cycle arrest marker) and PHLDA3 (apoptotic marker) [11]: upregulation | solubility [12]: < 0.01 mg/mL | hCD45+ cells in bone marrow and AML blasts [13]: significantly reduces | tumor response [14]: partial responses | tumor response ([2]; exposure-matched weekly dosing): tumor stasis | plasma concentration required for tumor regression ([2]; maintained for 12 to 22 hours): above 0.01 uM | median survival ([2]; single dose at 3 mg/kg): 50 days | tumor response ([2]; single doses): tumor regression | induction of apoptosis and cell killing [15]: enhances induction of apoptosis and cell killing | pKa [16]: 5 | logD [17]: > 3.7 | cell growth inhibition compared to SMIs [18]: > 200 fold | tumor response [19]: tumor regression | robust activation of the p53 pathway and induction of CC-3 (IHC) ([3]; exposure-matched weekly dosing): not | activation of the p53 pathway and induction of CC-3 (IHC) ([3]; single dose): robust activation of the p53 pathway and induction of cleaved caspase-3 (CC-3) | plasma concentration required for induction of the apoptotic gene BBC3 ([20]; RS4;11 tumors): above 0.02 uM | increase in apoptotic markers (qPCR) ([20]; exposure-matched weekly dosing, n=3/group): only a moderate increase | induction of the apoptotic gene BBC3 (qPCR) ([20]; single doses that lead to tumor regression, n=3/group): robust induction | effect on p53-dependent upregulation of MDM2 protein levels ([21]; compared with reversible SMIs): can overcome the p53-dependent upregulation of MDM2 protein levels | apoptosis in washout experiments ([21]; pulsed dose, mediated through p53 target genes): can lead to apoptosis | p53 stabilization ([21]; short 2 hour exposures, versus SMIs): more potently stabilize p53 than SMIs | complete responses ([4]; single dose at 3 mg/kg): 5 of 6 | tumor-free on study ([4]; single dose at 3 mg/kg, 80 days post dosing): 4 of 6 | highly active in xenograft model [22]: not

Nc1ccn([C@@H]2O[C@H](CO)[C@@H](O)[C@@H]2O)c(=O)n1 [cytarabine]
anti-tumor activity ([8]; combination of cytarabine and venetoclax): no significant anti-tumor activity | anti-tumor activity ([8]; cytarabine alone): no significant anti-tumor activity
